Source: ChEMBL document CHEMBL4342414, “Activity of 2,6,9-trisubstituted purines as potent PDGFRα kinase inhibitors with antileukaemic activity” (Eur J Med Chem, 2019)

System: EOL1
Experiment: Cytotoxicity against FIP1L1-PDGFRA positive human EOL-1 cells assessed as growth inhibition after 72 hrs by resazurin dye-based fluorescence analysis
Type: functional
Conditions: EOL1, 72 h
For `OCCCCNc1nc(Nc2cccc(CN3CCOCC3)c2)c2ncn(C3CCCC3)c2n1`, the GI50 was 0.282 µM. For `N[C@H]1CC[C@H](Nc2nc(Nc3cccc(CN4CCOCC4)c3)c3ncn(CCCO)c3n2)CC1`, the GI50 was 0.075 µM. With `OCCCCNc1nc(Nc2ccc(CN3CCOCC3)cc2)c2ncn(C3CCCC3)c2n1` the GI50 was 0.202 µM. In the case of `N[C@H]1CC[C@H](Nc2nc(Nc3ccc(N4CCN(Cc5ccccc5)CC4)cc3)c3ncn(CCCO)c3n2)CC1`, the GI50 is reported as 0.058 µM. Compound `OCCCCNc1nc(Nc2ccc(Oc3nccs3)cc2)c2ncn(C3CCCC3)c2n1` has a GI50 of 0.489 µM. `N[C@H]1CC[C@H](Nc2nc(Nc3ccc(Oc4ncccn4)cc3)c3ncn(C4CCCC4)c3n2)CC1` gave a GI50 of 0.02 µM. Work on `N[C@H]1CC[C@H](Nc2nc(Nc3ccccc3CN3CCOCC3)c3ncn(C4CCCC4)c3n2)CC1` yielded a GI50 of 4.52 µM. With `N[C@H]1CC[C@H](Nc2nc(Nc3ccc(-c4cccs4)nc3)c3ncn(C4CCCC4)c3n2)CC1` the GI50 was 0.021 µM. Compound `COc1ccccc1-c1ccc(Nc2nc(N[C@H]3CC[C@H](N)CC3)nc3c2ncn3C2CCCC2)cn1` has a GI50 of 0.014 µM. Work on `NCCCCNc1nc(Nc2ccc(N3CCN(Cc4ccccc4)CC3)cc2)c2ncn(C3CCC(O)C3)c2n1` (stereo unspecified) yielded a GI50 of 0.046 µM. Work on `NCCCCNc1nc(Nc2ccc(CN3CCOCC3)cc2)c2ncn(CCCO)c2n1` yielded a GI50 of 0.138 µM.

Target: Platelet-derived growth factor receptor alpha (Homo sapiens, UniProt P16234, V561D)
Sequence (P16234 24-1089 V561D limits assumed): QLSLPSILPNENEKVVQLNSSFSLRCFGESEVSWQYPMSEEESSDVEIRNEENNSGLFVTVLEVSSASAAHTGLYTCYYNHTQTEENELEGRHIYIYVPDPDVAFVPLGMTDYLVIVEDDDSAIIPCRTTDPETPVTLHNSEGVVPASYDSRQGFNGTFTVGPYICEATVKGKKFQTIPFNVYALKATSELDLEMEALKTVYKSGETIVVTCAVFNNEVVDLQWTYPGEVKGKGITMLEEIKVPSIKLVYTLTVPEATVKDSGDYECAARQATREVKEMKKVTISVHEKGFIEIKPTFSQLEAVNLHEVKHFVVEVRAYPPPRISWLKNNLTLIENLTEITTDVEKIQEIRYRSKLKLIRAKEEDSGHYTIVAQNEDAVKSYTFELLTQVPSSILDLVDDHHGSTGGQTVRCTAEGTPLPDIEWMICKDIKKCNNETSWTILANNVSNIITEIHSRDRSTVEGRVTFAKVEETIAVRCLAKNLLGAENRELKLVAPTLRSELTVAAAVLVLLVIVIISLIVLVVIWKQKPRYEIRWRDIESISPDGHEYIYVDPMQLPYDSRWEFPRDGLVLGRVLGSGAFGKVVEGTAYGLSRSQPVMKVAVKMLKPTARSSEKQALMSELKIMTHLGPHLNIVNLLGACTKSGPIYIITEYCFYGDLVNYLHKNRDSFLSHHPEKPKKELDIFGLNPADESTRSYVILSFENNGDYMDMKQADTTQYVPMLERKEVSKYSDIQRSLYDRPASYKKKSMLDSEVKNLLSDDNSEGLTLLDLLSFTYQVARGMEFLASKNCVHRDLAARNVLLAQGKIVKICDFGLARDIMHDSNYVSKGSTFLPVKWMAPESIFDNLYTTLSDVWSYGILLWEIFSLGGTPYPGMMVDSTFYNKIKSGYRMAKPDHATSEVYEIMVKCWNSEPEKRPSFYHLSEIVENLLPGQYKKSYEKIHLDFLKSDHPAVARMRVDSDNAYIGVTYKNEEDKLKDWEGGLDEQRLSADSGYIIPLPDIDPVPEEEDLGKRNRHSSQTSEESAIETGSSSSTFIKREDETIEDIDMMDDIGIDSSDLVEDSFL
Experiment: biochemical
Type: cell-based, Sf9
Conditions: not given
`N[C@H]1CC[C@H](Nc2nc(Nc3ccccc3CN3CCOCC3)c3ncn(C4CCCC4)c3n2)CC1` showed an IC50 of over 20 µM.

System: not listed separately
Experiment: Selectivity index, ratio of GI50 for human BJ cells to GI50 for FIP1L1-PDGFRA positive human EOL-1 cells after 72 hrs by resazurin dye-based fluorescence analysis
Conditions: not given
Compound `N[C@H]1CC[C@H](Nc2nc(Nc3ccccc3CN3CCOCC3)c3ncn(C4CCCC4)c3n2)CC1` has a RatioGI50 of 7.

System: K562
Experiment: Cytotoxicity against human K562 cells assessed as growth inhibition after 72 hrs by resazurin dye-based fluorescence analysis
Type: functional
Conditions: K562, 72 h
`OCCCCNc1nc(Nc2cccc(CN3CCOCC3)c2)c2ncn(C3CCCC3)c2n1` showed a GI50 of 30.4 µM. `N[C@H]1CC[C@H](Nc2nc(Nc3cccc(CN4CCOCC4)c3)c3ncn(CCCO)c3n2)CC1` showed a GI50 of over 40 µM. `N[C@H]1CC[C@H](Nc2nc(Nc3ccc(N4CCN(Cc5ccccc5)CC4)cc3)c3ncn(CCCO)c3n2)CC1` gave a GI50 of 2.67 µM. Compound `OCCCCNc1nc(Nc2ccc(Oc3nccs3)cc2)c2ncn(C3CCCC3)c2n1` has a GI50 of 6.08 µM. `N[C@H]1CC[C@H](Nc2nc(Nc3ccc(Oc4ncccn4)cc3)c3ncn(C4CCCC4)c3n2)CC1` gave a GI50 of 2.27 µM. In the case of `N[C@H]1CC[C@H](Nc2nc(Nc3ccccc3CN3CCOCC3)c3ncn(C4CCCC4)c3n2)CC1`, the GI50 is reported as 4.11 µM. For `N[C@H]1CC[C@H](Nc2nc(Nc3ccc(-c4cccs4)nc3)c3ncn(C4CCCC4)c3n2)CC1`, the GI50 was 0.574 µM. In the case of `COc1ccccc1-c1ccc(Nc2nc(N[C@H]3CC[C@H](N)CC3)nc3c2ncn3C2CCCC2)cn1`, the GI50 is reported as 0.553 µM. Work on `NCCCCNc1nc(Nc2ccc(N3CCN(Cc4ccccc4)CC3)cc2)c2ncn(C3CCC(O)C3)c2n1` (stereo unspecified) yielded a GI50 of 1.63 µM. With `NCCCCNc1nc(Nc2ccc(CN3CCOCC3)cc2)c2ncn(CCCO)c2n1` the GI50 was 9.37 µM.

System: HCC827
Experiment: Cytotoxicity against human HCC827 cells assessed as growth inhibition after 72 hrs by resazurin dye-based fluorescence analysis
Type: functional
Conditions: HCC827, 72 h
Compound `OCCCCNc1nc(Nc2cccc(CN3CCOCC3)c2)c2ncn(C3CCCC3)c2n1` has a GI50 of 8.13 µM. With `N[C@H]1CC[C@H](Nc2nc(Nc3cccc(CN4CCOCC4)c3)c3ncn(CCCO)c3n2)CC1` the GI50 was 25.5 µM. In the case of `OCCCCNc1nc(Nc2ccc(CN3CCOCC3)cc2)c2ncn(C3CCCC3)c2n1`, the GI50 is reported as 2.51 µM. `N[C@H]1CC[C@H](Nc2nc(Nc3ccc(N4CCN(Cc5ccccc5)CC4)cc3)c3ncn(CCCO)c3n2)CC1` showed a GI50 of 2.38 µM. With `OCCCCNc1nc(Nc2ccc(Oc3nccs3)cc2)c2ncn(C3CCCC3)c2n1` the GI50 was 6.05 µM. `N[C@H]1CC[C@H](Nc2nc(Nc3ccc(Oc4ncccn4)cc3)c3ncn(C4CCCC4)c3n2)CC1` gave a GI50 of 2.72 µM. In the case of `N[C@H]1CC[C@H](Nc2nc(Nc3ccccc3CN3CCOCC3)c3ncn(C4CCCC4)c3n2)CC1`, the GI50 is reported as 22.2 µM. In the case of `N[C@H]1CC[C@H](Nc2nc(Nc3ccc(-c4cccs4)nc3)c3ncn(C4CCCC4)c3n2)CC1`, the GI50 is reported as 0.652 µM. `COc1ccccc1-c1ccc(Nc2nc(N[C@H]3CC[C@H](N)CC3)nc3c2ncn3C2CCCC2)cn1` showed a GI50 of 0.638 µM. Work on `NCCCCNc1nc(Nc2ccc(N3CCN(Cc4ccccc4)CC3)cc2)c2ncn(C3CCC(O)C3)c2n1` (stereo unspecified) yielded a GI50 of 2.29 µM. Compound `NCCCCNc1nc(Nc2ccc(CN3CCOCC3)cc2)c2ncn(CCCO)c2n1` has a GI50 of 19 µM.

System: not listed separately
Experiment: Cytotoxicity against human BJ cells assessed as growth inhibition after 72 hrs by resazurin dye-based fluorescence analysis
Type: cell-based
Conditions: not given
Compound `OCCCCNc1nc(Nc2cccc(CN3CCOCC3)c2)c2ncn(C3CCCC3)c2n1` has a GI50 at 72 h of 25.7 µM. In the case of `N[C@H]1CC[C@H](Nc2nc(Nc3cccc(CN4CCOCC4)c3)c3ncn(CCCO)c3n2)CC1`, the GI50 at 72 h is reported as over 40 µM. `OCCCCNc1nc(Nc2ccc(CN3CCOCC3)cc2)c2ncn(C3CCCC3)c2n1` showed a GI50 at 72 h of 22.8 µM. `N[C@H]1CC[C@H](Nc2nc(Nc3ccc(N4CCN(Cc5ccccc5)CC4)cc3)c3ncn(CCCO)c3n2)CC1` showed a GI50 at 72 h of 16.5 µM. `OCCCCNc1nc(Nc2ccc(Oc3nccs3)cc2)c2ncn(C3CCCC3)c2n1` showed a GI50 at 72 h of 23.5 µM. Work on `N[C@H]1CC[C@H](Nc2nc(Nc3ccc(Oc4ncccn4)cc3)c3ncn(C4CCCC4)c3n2)CC1` yielded a GI50 at 72 h of 16.9 µM. Compound `N[C@H]1CC[C@H](Nc2nc(Nc3ccccc3CN3CCOCC3)c3ncn(C4CCCC4)c3n2)CC1` has a GI50 at 72 h of 30.4 µM. For `N[C@H]1CC[C@H](Nc2nc(Nc3ccc(-c4cccs4)nc3)c3ncn(C4CCCC4)c3n2)CC1`, the GI50 at 72 h was 2.94 µM. For `COc1ccccc1-c1ccc(Nc2nc(N[C@H]3CC[C@H](N)CC3)nc3c2ncn3C2CCCC2)cn1`, the GI50 at 72 h was 6.2 µM. In the case of `NCCCCNc1nc(Nc2ccc(N3CCN(Cc4ccccc4)CC3)cc2)c2ncn(C3CCC(O)C3)c2n1` (stereo unspecified), the GI50 at 72 h is reported as 13.2 µM. `NCCCCNc1nc(Nc2ccc(CN3CCOCC3)cc2)c2ncn(CCCO)c2n1` showed a GI50 at 72 h of 35 µM.

System: not listed separately
Experiment: Cytotoxicity against human CEM cells assessed as growth inhibition after 72 hrs by resazurin dye-based fluorescence analysis
Type: cell-based
Conditions: CEM (CCRF-CEM) cells
Compound `OCCCCNc1nc(Nc2cccc(CN3CCOCC3)c2)c2ncn(C3CCCC3)c2n1` has a GI50 at 72 h of 11.1 µM. `N[C@H]1CC[C@H](Nc2nc(Nc3cccc(CN4CCOCC4)c3)c3ncn(CCCO)c3n2)CC1` gave a GI50 at 72 h of over 40 µM. In the case of `OCCCCNc1nc(Nc2ccc(CN3CCOCC3)cc2)c2ncn(C3CCCC3)c2n1`, the GI50 at 72 h is reported as 3.48 µM. Work on `N[C@H]1CC[C@H](Nc2nc(Nc3ccc(N4CCN(Cc5ccccc5)CC4)cc3)c3ncn(CCCO)c3n2)CC1` yielded a GI50 at 72 h of 4.56 µM. With `OCCCCNc1nc(Nc2ccc(Oc3nccs3)cc2)c2ncn(C3CCCC3)c2n1` the GI50 at 72 h was 13.4 µM. `N[C@H]1CC[C@H](Nc2nc(Nc3ccc(Oc4ncccn4)cc3)c3ncn(C4CCCC4)c3n2)CC1` showed a GI50 at 72 h of 1.15 µM. For `N[C@H]1CC[C@H](Nc2nc(Nc3ccccc3CN3CCOCC3)c3ncn(C4CCCC4)c3n2)CC1`, the GI50 at 72 h was 18.1 µM. In the case of `N[C@H]1CC[C@H](Nc2nc(Nc3ccc(-c4cccs4)nc3)c3ncn(C4CCCC4)c3n2)CC1`, the GI50 at 72 h is reported as 0.477 µM. Compound `COc1ccccc1-c1ccc(Nc2nc(N[C@H]3CC[C@H](N)CC3)nc3c2ncn3C2CCCC2)cn1` has a GI50 at 72 h of 0.46 µM. `NCCCCNc1nc(Nc2ccc(N3CCN(Cc4ccccc4)CC3)cc2)c2ncn(C3CCC(O)C3)c2n1` (stereo unspecified) gave a GI50 at 72 h of 3.67 µM. `NCCCCNc1nc(Nc2ccc(CN3CCOCC3)cc2)c2ncn(CCCO)c2n1` gave a GI50 at 72 h of 8.2 µM.
